These results are taken from US20230301969A1, “DOSING SCHEDULE FOR A METHOD OF TREATMENT WITH DHODH INHIBITORS” (Bayer Aktiengesellschaft, priority 2020, published 2023).

Data set [1] concerns acute myeloid leukemia xenograft model THP1. Kind of data set: AML THP1 subcutaneous xenograft, tumor volume. Format: in vivo, SCID mice. Conditions: start day 16, 7 days of treatment. Here is the method: (§1) Tumor cells were injected subcutaneously into the flank of the mice. Treatment was initiated at a predefined tumor size after cell inoculation. BAY 2402234 was applied orally (p.o.) at various dose levels and schedules (daily or intermittent). BAY 2402234 was prepared in solution in PEG400/ETOH 9/1. Animal body weight during the study was monitored at least twice weekly. Subcutaneous tumors were measured with a caliper (length and width) at least twice a week, depending on the doubling time of the tumor. Values are presented as volume. Efficacy was calculated on a specific day according to the formula: T/C (treatment/control ratio)=(mean tumor volume from the treated group/mean tumor volume from the vehicle group). Tumor volume was calculated using (width^2×length)/2.
(§2) AML THP1 cells were inoculated in the flank of SCID mice and 16 days after implantation tumors were measured and animals were randomized at an average tumor volume of around 100 mm^3. Treatment with DHODH Inhibitor BAY2402234 was started at time of randomization. Either daily dosing of 5 mg/kg or 10 mg/kg at a 4 days on/3 days off schedule was used and the drug was given orally in 90/10 PEG400/EtOH formulation. […] The daily dosing sums up to a total weekly dose of 35 mg/kg, while the 4 days on/3 days off schedule sums up to a 40 mg/kg weekly dose.

Data set [2] can be described thus: Body weight of animals in the HT29 xenograft model (tolerability). Format: in vivo, mice. Conditions: for body weight / tolerability: 5 mg/kg p.o. 5 days on/2 days off, course of the experiment. Here is the method:
as §1
(§3) Colorectal cancer cells were inoculated in the flank of mice and 9 days after implantation tumors were measured and animals were randomized at an average tumor volume of around 80 mm^3. Treatment with DHODH Inhibitor BAY2402234 was started at time of randomization. Either daily dosing of 5 mg/kg or 10 mg/kg at a 5 days on/2 days off schedule or 5 mg/kg at a 5 days on 2 days off was used and the drug was given orally in 90/10 PEG400/EtOH formulation. The daily dosing sums up to a total weekly dose of 35 mg/kg, while the 5 days on/2 days off schedule sums up to a 50 or a 25 mg/kg weekly dose respectively.

For data set [3] the following is noted: mouse, in vivo. Here is the method:
as §2

Data set [4] relates to Mantle cell lymphoma xenograft model Z138. Nature of the data set: Mantle cell lymphoma Z138 subcutaneous xenograft, tumor volume. The conditions noted are these: start day 20. Format: in vivo, SCID mice. Here is the method: as §1
Mantle Cell Lymphoma Z138 cells were inoculated in the flank of SCID mice and 20 days after implantation tumors were measured and animals were randomized at an average tumor volume of around 100 mm^3. Treatment with DHODH Inhibitor BAY 2402234 was started at time of randomization. Either daily dosing of 5 mg/kg or 10 mg/kg at a 4 days on/3 days off schedule or 5 mg/kg at a 5 days on 2 days off was used and the drug was given orally in 90/10 PEG400/EtOH formulation. The daily dosing sums up to a total weekly dose of 35 mg/kg, while the 4 days on/3 days off schedule sums up to a 40 mg/kg weekly dose and the 5 days on 2 days off sums up to 25 mg/kg weekly dose.

Data set [5] relates to colorectal cancer xenograft model HT29. Nature of the data set: Colorectal cancer HT29 subcutaneous xenograft, tumor volume. Type of data set: in vivo, mice. The conditions noted are these: start day 9. As for the experimental part: as §1, §3
A further data set concerns solid cancer. Conditions: weekly doses or 5 days on 23 days off schedule, cited from earlier work.
The mark [6] stands for this setting: 5 mg/kg p.o. daily (35 mg/kg weekly).
Where [7] appears, read: 10 mg/kg p.o. 4 days on/3 days off (40 mg/kg weekly).
Setting [8] is: 5 mg/kg p.o. 5 days on/2 days off (25 mg/kg weekly).

“Also recorded” adds a separate entry of the source. Like-named read-outs stand apart in the source and are kept apart here.

Regarding `CCn1c(CO)nn(-c2cc(O[C@@H](C)C(F)(F)F)c(C(=O)Nc3c(F)cccc3Cl)cc2F)c1=O` [BAY 2402234, N-(2-chloro-6-fluorophenyl)-4-[4-ethyl-3-(hydroxymethyl)-5-oxo-4,5-dihydro-1H-1,2,4-triazol-1-yl]-5-fluoro-2-{[(2S)-1,1,1-trifluoropropan-2-yl]oxy}benzamide], the “development of tumor volume / efficacy” value in data set [1] (setting [6]) is listed as “stable disease”; in data set [1] (setting [7]) it was “stable disease”; in data set [4] (setting [8]) it was “shrinkage of the tumors; also recorded: tumor regression”; in data set [4] (setting [6]), “shrinkage of the tumors; also recorded: tumor regression”; in data set [4] (setting [7]), “shrinkage of the tumors; also recorded: tumor regression”; in data set [5] (setting [8]), “tumor growth inhibition”. Further, the “development of tumor volume / efficacy” value in data set [5] (5 mg/kg p.o. 5 days on/2 days off (25 mg/kg weekly), listed as BAY2402234) was “tumor growth delay”; in data set [5] (setting [6]) it was “tumor growth inhibition”; in data set [5] (5 mg/kg p.o. daily (35 mg/kg weekly), listed as BAY2402234) it was “tumor growth delay”; in data set [5] (10 mg/kg p.o. 5 days on/2 days off (50 mg/kg weekly)), “tumor growth inhibition; also recorded: slightly stronger”; in data set [5] (10 mg/kg p.o. 5 days on/2 days off (50 mg/kg weekly), listed as BAY2402234), “tumor growth delay; also recorded: slightly more efficacious”. In addition, the entries for the “body weight / tolerability” value in data set [2] and in data set [2] (listed as BAY2402234) were “relative constant bodyweight” and “best tolerated”, respectively. In addition, the body weight loss entry is recorded as “above 10%” in data set [2] (5 mg/kg p.o. daily, at experiments end) and “around 4%” in data set [2] (10 mg/kg p.o. 5 days on/2 days off, at the end of the experiment). For the same molecule, the “dose relative to maximal tolerated dose” value in data set [3] is reported as “close to the maximal tolerated dose”.
Take `Cc1c(-c2ccc(-c3ccccc3F)cc2)nc2ccc(F)cc2c1C(=O)O` [Brequinar, 6-fluoro-2-(2′-fluoro-[1,1′-biphenyl]-4-yl)-3-methylquinoline-4-carboxylic acid]: the “clinical activity in solid cancer indications” value in the data set on solid cancer is listed as “failed to show sufficient clinical activity”; in the data set on solid cancer (listed as Brequinar sodium), “ineffective”.
